Source: BindingDB's records for doi:10.1074/jbc.M113.528695 (St. Paul's Hospital's Centre of Heart and Lung …, 2014)

Molecular target: T1, Nitric oxide synthase, endothelial (Bos taurus, UniProt P29473)
T1 sequence (P29473 whole entry): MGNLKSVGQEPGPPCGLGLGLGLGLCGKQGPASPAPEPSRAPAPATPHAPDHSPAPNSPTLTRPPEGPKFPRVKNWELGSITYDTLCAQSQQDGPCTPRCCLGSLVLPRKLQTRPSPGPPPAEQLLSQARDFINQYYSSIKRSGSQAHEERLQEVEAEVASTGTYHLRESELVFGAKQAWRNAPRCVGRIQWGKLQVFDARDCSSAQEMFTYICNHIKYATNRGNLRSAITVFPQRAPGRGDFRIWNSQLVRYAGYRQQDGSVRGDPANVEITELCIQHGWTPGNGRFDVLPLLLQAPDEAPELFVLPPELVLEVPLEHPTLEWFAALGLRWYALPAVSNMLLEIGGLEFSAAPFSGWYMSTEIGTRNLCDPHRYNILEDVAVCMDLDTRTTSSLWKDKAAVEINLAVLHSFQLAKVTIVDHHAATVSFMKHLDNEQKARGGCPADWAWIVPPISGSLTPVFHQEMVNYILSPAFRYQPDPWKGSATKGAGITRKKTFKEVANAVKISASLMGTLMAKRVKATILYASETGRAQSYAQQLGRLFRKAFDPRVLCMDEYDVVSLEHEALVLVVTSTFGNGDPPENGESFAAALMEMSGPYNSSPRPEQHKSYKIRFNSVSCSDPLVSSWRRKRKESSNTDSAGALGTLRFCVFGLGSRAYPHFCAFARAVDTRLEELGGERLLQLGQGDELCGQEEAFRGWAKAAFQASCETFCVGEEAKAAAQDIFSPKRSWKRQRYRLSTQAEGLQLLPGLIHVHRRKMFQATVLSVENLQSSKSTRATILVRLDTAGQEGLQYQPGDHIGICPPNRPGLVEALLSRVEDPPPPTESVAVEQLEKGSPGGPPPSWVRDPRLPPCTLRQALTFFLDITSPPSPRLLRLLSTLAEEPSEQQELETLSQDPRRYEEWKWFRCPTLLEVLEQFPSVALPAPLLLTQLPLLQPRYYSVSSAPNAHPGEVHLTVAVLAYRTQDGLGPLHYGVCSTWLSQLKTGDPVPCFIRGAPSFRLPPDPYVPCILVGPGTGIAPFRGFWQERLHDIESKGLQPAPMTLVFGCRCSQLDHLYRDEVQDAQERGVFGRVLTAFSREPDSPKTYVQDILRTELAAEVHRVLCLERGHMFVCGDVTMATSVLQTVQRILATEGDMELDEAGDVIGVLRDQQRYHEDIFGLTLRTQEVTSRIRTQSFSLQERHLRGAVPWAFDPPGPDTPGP
Assay: Polarization Assay
Conditions: pH 7.5; 25 °C
Experimental: eNOS was diluted to varying concentrations in buffer containing 50 mM inorganic phosphate, 50 mM KCl, and 5 mM DTT, pH 7.5. A spectrophotometer was used to determine the concentration of the fluorescein-labeled peptide using the extinction coefficient for fluorescein (ε492 nm = 79,000 M^-1). Peptides (100 nM) were added to samples containing varying concentrations of eNOS and incubated for 1 h at room temperature. Samples were then plated on 384-well Grenier Bio-One solid black microplates in triplicate. Polarization was measured with a Tecan Infinite M1000 Pro apparatus in fluorescent polarization mode using 470-nm excitation and 515-nm emission filters.

Substance	Kd [nM]
H-TTATVTKYWF-OH [TTATVTKYWF]	23
H-TTFTVTKYWF-OH [TTFTVTKYWF]	42
